This is an account of results in PMC9014415, “Repositioning of a Diaminothiazole Series Confirmed to Target the Cyclin-Dependent Kinase CRK12 for Use in the Treatment of African Animal Trypanosomiasis” (Journal of Medicinal Chemistry, 2022).

“And” between values parts separate entries of the source, which are not always exact repeats. Identical values can stand only once.

Data set [1] is described as follows: Bovine hepatocyte stability. Type of data set: in vitro ADME. To be noted: intrinsic clearance. On the procedure: collagen coated cell culture plates for 10 minutes at 37 °C, 5% CO2. Upon addition of an equal volume of supplemented WME containing 1 µM test compound, an aliquot of incubation solution was removed to acetonitrile containing internal standard (final concentration 0.5 µM test compound and a cell density of 0.25 million cells/mL). Similarly, aliquots were removed at 3, 6, 9, 15, 30, 45, 60, 90 and 120 min. 100 µL of 80:20 water:acetonitrile was added to all samples and the analysis plate was centrifuged (10 min, 1,665 g, RT) prior to injection and analysis of samples by UPLC-MS/MS. The response (area ratio of test compound relative to internal standard) was plotted against time using an exponential decay model and rate of disappearance calculated. Hepatocyte CLint (mL/min/10^6 cells) was scaled to in vivo CLint (ml/min/g Liver) using the hepato-cellularity scaling factor of 120 x […]
(b) Bovine hepatocyte stability. Freshly isolated female bovine (Prim’Holstein) hepatocytes were supplied by Biopredic InternationalTM. […]
of 80:20 water:acetonitrile was added to all samples and the analysis plate was centrifuged (10 min, 1,665 g, RT) prior to injection and analysis of samples by UPLC-MS/MS. The response (area ratio of test compound to internal standard) was plotted against time using an exponential decay model and rate of disappearance calculated. […]

Data set [2] relates to T. congolense. The experiment in a line: Cattle efficacy for compound 2, intramuscular (CIRDES), T. congolense. Type of data set: in vivo, Trypanosoma congolense. The procedure:
Compound 2 was progressed into IM efficacy studies dosing at 10 mg/kg either once or twice, 15 h apart, in cattle infected with T. congolense or T. vivax. […]
3.5 Cattle efficacy for compound 2, intramuscular (CIRDES)
Felani-zebu cattle were housed in a fly-proof facility, acclimatised for 15 d prior to the study, cattle were treated with an anthelmintic, an ectoparasiticide and an antibiotic. Donor animals were infected with stabilates (frozen stocks) of either T. congolense KOT256 (resistant to 7 mg/kg diminazene in cattle) or T. vivax Gando Bongaly (resistant to diminazene 7 mg/kg and to isometamidium 1 mg/kg […]
in cattle). Blood from the donor animals, diluted with phosphate buffered glucose was used to infect recipient animals IV via the jugular vein. Infection was with approximately 100,000 fresh viable parasites. The compounds were given IM. Each injection was up to 10 mL and given in neck in the following order: left anterior third, right anterior third, left posterior third and right posterior third.
Animals over 240 kg required a fifth injection site for the IVP, and this was given in the left or right hind leg. Cattle were randomised to treatments. Parasitaemia was monitored 3 times per calendar week, though collection of blood and assessment of clinical symptoms. Blood samples were also […]
treatment). […]

Regarding `CC(C)CS(=O)(=O)N[C@H]1CC[C@H](Nc2nc(N)c(C(=O)c3c(F)cccc3F)s2)CC1` [Compound 1, N-((trans)-4-((4-Amino-5-(2,6-difluorobenzoyl)thiazol-2-yl)amino)cyclohexyl)-2-methylpropane-1-sulfonamide], the “Bovine Hepatocyte Cli” value in data set [1] is listed as <0.5 / 0.5 mL/min/g.

`CC(C)CS(=O)(=O)N[C@H]1CC[C@H](Nc2nc(N)c(C(=O)c3c(F)cc(CN(C)C)cc3F)s2)CC1` [Compound 2, N-(trans)-[4-[[4-Amino-5-[4-(dimethylaminomethyl)-2,6-difluoro-benzoyl]thiazol-2-yl]amino]cyclohexyl]-2-methyl-propane-1-sulfonamide]: the Cattle cured result in data set [2] (10 mg/kg IM twice, 15 h apart, treatment groups T2 and T4 together) is given as “three out of the eight”. Further, the efficacy in data set [2] (T1, 10 mg/kg IM once, cured/animals, 100 days) was 0/6; in data set [2] (T2, 10 mg/kg IM twice, 15 h apart, cured/animals), 1/4; in data set [2] (T4, saline twice, followed by compound 2 rescue dose twice IM 5 days later), 2/4. Further, the “Efficacy, individual animals” value is “no” in data set [2] (T1 single dose IM, animals 1903, 1910, 1913, 1924, 1935, 1936); “no (3×) and yes” in data set [2] (T2 dosed twice IM, animals 1905, 1906, 1909, 1917); “no (2×) and yes (2×)” in data set [2] (T4 after 2 (two rescue doses IM), animals 1914, 1921, 1923, 1927).
